Source: patent US20230126447A1, “OCULAR DRUG DEPOT FOR COMPLEMENT-MEDIATED DISORDERS” (priority 2020, published 2023)

Test: Ocular tissue and plasma pharmacokinetics, 50 mg/kg BID oral, Dutch Belted rabbits (Example 4/5)
Format: in vivo
Details: DB rabbit; for Mean Choroid-RPE concentration / Mean Iris-Ciliary Body concentration / Mean plasma concentration / Mean retina concentration / Optic Nerve concentration / Vitreous concentration: 50 mg/kg BID oral; for Mean Choroid-RPE concentration / Mean Iris-Ciliary Body concentration / Mean plasma concentration / Mean retina concentration: 50 mg/kg
Procedure: Study design, including group designation and dose levels, are outlined in Table 15. […] Two Dutch Belted rabbits received vehicle only oral gavage doses for tolerability assessment. […] The dose volume was 5 mL/kg/dose for all groups. Safety was assessed with toxicological and ophthalmic examinations, including slit lamp biomicroscopy, indirect ophthalmoscopy, rebound tonometry, and ultrasonic corneal pachymetry.
For the pharmacokinetic determination, a single blood sample was taken from each rabbit from Groups 1 and 4 at one hour post-dose on Day 15, Group 2 at one hour post-dose on Day 8, and Group 3 at pre-dose, 1, 6, 24, 96, 168, and 240 hours post-dose on Day 15, with the eyes collected at the same time as blood sampling. Plasma, vitreous humor (VH), retina, choroid-retina pigmented epithelium (Choroid-RPE), optic nerve (ON), and iris-ciliary body (I-CB) were analyzed by LC-MS/MS to quantify test article concentrations. The lower limit of quantitation (LLOQ) in plasma and vitreous humor was 1.0 ng/mL. The LLOQ was 6.0 ng/g in retina, choroid-RPE, and I-CB and the optic nerve LLOQ was 15 ng/g, assuming tissue density of 1 g/mL where relevant. […]

[1] = Choroid-RPE, 50 mg/kg BID, Day 15
[2] = Iris-Ciliary Body, 50 mg/kg BID, Day 15
[3] = Optic Nerve, 50 mg/kg BID, Day 15
[4] = Vitreous Humor, 50 mg/kg BID, Day 15
[5] = male, Dutch Belted, po, Choroid-RPE, 50 mg/kg BID, Day 15
[6] = male, Dutch Belted, po, Iris-Ciliary Body, 50 mg/kg BID, Day 15

CC(=O)c1nn(CC(=O)N2C[C@H](F)C[C@H]2C(=O)Nc2cccc(Br)n2)c2ccc(-c3cnc(C)nc3)cc12 [Compound 1, (2S,4R)-1-(2-(3-Acetyl-5-(2-methylpyrimidin-5-yl)-1H-indazol-1-yl)acetyl)-N-(6-bromopyridin-2-yl)-4-fluoropyrrolidine-2-carboxamide]
AUC(0-t) [1]: 274000 ng·h/g | AUC(0-∞) [1]: 292000 ng·h/g | Tlast [1]: 240 h | Optic nerve concentration after 24 hours post-dose (non-detectable) (50 mg/kg BID for 14 days): < 1.0 ng/mL | Plasma concentration after 24 hours post-dose (non-detectable) (50 mg/kg BID for 14 days): < 1.0 ng/mL | Vitreous humor concentration after 24 hours post-dose (non-detectable) (50 mg/kg BID for 14 days): < 1.0 ng/mL | Mean Choroid-RPE concentration (Day 15, 0 h): 3918 ± 950 ng/g | Mean Iris-Ciliary Body concentration (Day 15, 0 h): 5076 ± 586 ng/g | Mean plasma concentration (Day 15, 0 h): 104 ± 68 ng/mL | Mean retina concentration (Day 15, 0 h): 159 ± 87.9 ng/g | Mean Choroid-RPE concentration (Day 15, 1 h): 8025 ± 2350 ng/g | Mean Iris-Ciliary Body concentration (Day 15, 1 h): 11475 ± 2022 ng/g | Mean plasma concentration (Day 15, 1 h): 2895 ± 884 ng/mL | Mean retina concentration (Day 15, 1 h): 2122 ± 376 ng/g | Mean Choroid-RPE concentration (Day 15, 6 h): 4373 ± 1586 ng/g | Mean Iris-Ciliary Body concentration (Day 15, 6 h): 8822 ± 2621 ng/g | Mean plasma concentration (Day 15, 6 h): 321 ± 70.0 ng/mL | Mean retina concentration (Day 15, 6 h): 725 ± 117 ng/g | Mean Choroid-RPE concentration (Day 15, 24 h): 2097 ± 273 ng/g | Mean Iris-Ciliary Body concentration (Day 15, 24 h): 5556 ± 2128 ng/g | Mean plasma concentration (Day 15, 24 h): 39.9 ± 4.45 ng/mL | Mean retina concentration (Day 15, 24 h): 265 ± 113 ng/g | Optic Nerve concentration (Day 15, 96 h): BLQ^b | Vitreous concentration (Day 15, 96 h): BLQ^c | Mean Choroid-RPE concentration (Day 15, 96 h): 873 ± 392 ng/g | Mean Iris-Ciliary Body concentration (Day 15, 96 h): 2837 ± 1136 ng/g | Mean plasma concentration (Day 15, 96 h): BLQ^a and BLQ | Mean retina concentration (Day 15, 96 h): 32.3 ± 24.2 ng/g | Optic Nerve concentration (Day 15, 168 h): BLQ^b | Vitreous concentration (Day 15, 168 h): BLQ^c | Mean Choroid-RPE concentration (Day 15, 168 h): 645 ± 67.2 ng/g | Mean Iris-Ciliary Body concentration (Day 15, 168 h): 2292 ± 445 ng/g | Mean plasma concentration (Day 15, 168 h): BLQ^a and BLQ | Mean retina concentration (Day 15, 168 h): 54.9 ± 7.28 ng/g | Optic Nerve concentration (Day 15, 240 h): BLQ^b | Vitreous concentration (Day 15, 240 h): BLQ^c | Mean Choroid-RPE concentration (Day 15, 240 h): 195 ± 41.5 ng/g | Mean Iris-Ciliary Body concentration (Day 15, 240 h): 1624 ± 1275 ng/g | Mean plasma concentration (Day 15, 240 h): BLQ^a and BLQ | Mean retina concentration (Day 15, 240 h): 39.4 ± 20.1 ng/g | AUC(0-t) [2]: 801000 ng·h/g | AUC(0-∞) [2]: 1220000 ng·h/g | Tlast [2]: 240 h | AUC(0-t) [3]: 4880 ng·h/g | AUC(0-∞) [3]: 5180 ng·h/g | AUC(0-t) (Retina, 50 mg/kg BID, Day 15): 30300 ng·h/g | AUC(0-∞) (Retina, 50 mg/kg BID, Day 15): 35700 ng·h/g | Tlast (Retina, 50 mg/kg BID, Day 15): 240 h | AUC(0-t) [4]: 419 ng·h/g | AUC(0-∞) [4]: 442 ng·h/g | Tlast [4]: 24 h | Cmax [5]: 8020 ng/g | MRT last [5]: 68.6 h | Tmax [5]: 1 h | half-life [5]: 66.4 h | Cmax [6]: 11500 ng/g | MRT inf [6]: 138 h | MRT last [6]: 88 h | Tmax [6]: 1 h | half-life [6]: 178 h | Cmax (male, Dutch Belted, po, Optic Nerve, 50 mg/kg BID, Day 15): 1550 ng/g
